Measured values taken from US6603044B1, “Phthalamide derivatives, or salt thereof agrohorticultural insecticide, and method for using the same” (Nihon Nohyaku Co., Ltd., priority 1998, dated 2003).

Assays:
Type in all cases: in vivo
[1] = system: Diamond Back Moth (Plutella xylostella); assay: Insecticidal effect on diamond back moth (Test Example 1); settings: 50 ppm; Chinese cabbage seedling with deposited eggs immersed about 30 seconds; 25° C.; six days after the immersion
Text: Insecticidal Effect on Diamond Back Moth (Plutella xylostella)
Adult diamondback moths were released and allowed to oviposit on a Chinese cabbage seedling. Two days after the release, the seedling having the eggs deposited thereon was immersed for about 30 seconds in a liquid chemical prepared by diluting a preparation containing each compound listed in Table 1, 2 or 3 as an active ingredient to adjust the concentration to 50 ppm. After air-dryness, it was allowed to stand in a room thermostatted at 25° C. Six days after the immersion, the hatched insects were counted. The mortality was calculated according to the following equation and the insecticidal effect was judged according to the criterion shown below. The test was carried out with triplicate groups of 10 insects.

[2] = system: Common Cutworm (Spodoptera Litura); assay: Insecticidal effect on common cutworm (Test Example 2); settings: 50 ppm; cabbage leaf immersed about 30 seconds; second-instar larvae; 25° C.; eight days after the inoculation
Text: Insecticidal Effect on Common Cutworm (Spodoptera Litura)
A piece of cabbage leaf (cultivar; Shikidori) was immersed for about 30 seconds in a liquid chemical prepared by diluting a preparation containing each compound listed in Table 1, 2 or 3 as an active ingredient to adjust the concentration to 50 ppm. After air-dryness, it was placed in a plastic Petri dish with a diameter of 9 cm and inoculated with second-instar larvae of common cutworm, after which the dish was closed and then allowed to stand in a room thermostatted at 25° C. Eight days after the inoculation, the dead and alive were counted. The mortality was calculated according to the following equation and the insecticidal effect was judged according to the criterion shown in Test Example 1. The test was carried out with triplicate groups of 10 insects. [formula]

[3] = system: Smaller tea Tortrix (Adoxophyes sp.); assay: Insecticidal effect on smaller tea tortrix (Test Example 3); settings: 50 ppm; tea leaf immersed 30 seconds; larvae; 25° C., humidity 70%; eight days after the inoculation
Method: Insecticidal Effect on Smaller tea Tortrix (Adoxophyes sp.)
A leaf of tea tree was immersed for 30 seconds in a liquid chemical containing each compound listed in Table 1, 2 or 3 as an active ingredient to adjust the concentration to 50 ppm. After air-dryness, the leaf was transferred to a plastic dish with a diameter of 9 cm and inoculated with larval smaller tea tortrix. Then, the leaf was allowed to stand in a room thermostatted at 25° C. at a humidity of 70%. Eight days after the inoculation, the dead and alive were counted, and the insecticidal effect was judged according to the same criterion as mentioned in Test Example 1. The test was carried out with triplicate groups of 10 insects.

SMILES | Test Example 1 insecticidal effect (mortality) [1] | Test Example 2 insecticidal effect (mortality) [2] | Test Example 3 insecticidal effect (mortality) [3]
Cc1cc(OC(F)(F)F)ccc1NC(=O)c1cccc(Cl)c1C(=O)NC(C)C[S+](C)[O-] (stereo not drawn) [compound 143] | A (100) | D (79-50) | 
Cc1cc(OC(F)(F)F)ccc1NC(=O)c1cccc(I)c1C(=O)NC(C)(C)C[S+](C)[O-] (stereo not drawn) [compound 141] | A (100) | A (100) | 
Cc1cc(C(F)(F)C(F)(F)F)ccc1NC(=O)c1cccc(I)c1C(=O)N1CCSC1 [3-1] | A (100) | A (100) | 
Cc1cc(OC(F)(F)F)ccc1NC(=O)c1cccc(Br)c1C(=O)NC(C)CS(C)(=O)=O (stereo not drawn) [compound 88] | A (100) | C (89-80) | 
Cc1cc(OC(F)(F)F)ccc1NC(=O)c1cccc(I)c1C(=O)NC(C)CSc1ccccn1 (stereo not drawn) [compound 74] | A (100) | D (79-50) | 
COCC[S+]([O-])CC(C)NC(=O)c1c(I)cccc1C(=O)Nc1ccc(C(F)(C(F)(F)F)C(F)(F)F)cc1C (stereo not drawn) [compound 340] | A (100) | A (100) | 
CSCC(C)(C)NC(=O)c1c(I)cccc1C(=O)Nc1ccc(C(O)c2ccc(Cl)cc2)cc1C (stereo not drawn) [compound 472] | A (100) |  | A (100)
CCS(=O)(=O)CCCCC(C)NC(=O)c1c(I)cccc1C(=O)Nc1ccc(C(F)(C(F)(F)F)C(F)(F)F)cc1C (stereo not drawn) [compound 180] | A (100) |  | A (100)
CCC(Oc1ccc(NC(=O)c2cccc(I)c2C(=O)NC(C)CSC)c(C)c1)=C(C(F)(F)F)C(F)(F)F (stereo not drawn) [compound 46] | A (100) |  | A (100)
Cc1cc(C(F)(C(F)(F)F)C(F)(F)F)ccc1NC(=O)c1ccc2ccccc2c1C(=O)NC(C)CS(C)(=O)=O (stereo not drawn) [compound 335] | A (100) |  | D (79-50)
CSCC(C)NC(=O)c1c(I)cccc1C(=O)Nc1ccc([Si](C)(C)C)cc1C (stereo not drawn) [compound 368] | A (100) |  | A (100)
Cc1cc(C(F)(C(F)(F)F)C(F)(F)F)ccc1NC(=O)c1cccc(I)c1C(=O)NC(C)CSc1nccs1 (stereo not drawn) [compound 352] | A (100) |  | A (100)
CCSCC(C)NC(=O)c1c(I)cccc1C(=O)Nc1ccc(Cl)cc1C (stereo not drawn) [compound 24] | A (100) |  | A (100)
Cc1cc(C(F)(F)C(F)(F)F)ccc1NC(=O)c1cccc(I)c1C(=O)NC(C)CSC1CCCCC1 (stereo not drawn) [compound 85] | A (100) |  | A (100)
Cc1cc(C(F)(C(F)(F)F)C(F)(F)F)ccc1NC(=O)c1cccc(I)c1C(=O)NC(C)CSC(=O)N(C)C (stereo not drawn) [compound 461] | A (100) |  | D (79-50)
Cc1cc(C(F)(C(F)(F)F)C(F)(F)F)ccc1NC(=O)c1cccc(I)c1C(=O)NC(C)C[S+]([O-])c1nc2ccccc2s1 (stereo not drawn) [compound 344] | A (100) |  | A (100)
CCCCSCC(C)NC(=O)c1c(I)cccc1C(=O)Nc1ccc(C(F)(F)C(F)(F)F)cc1C (stereo not drawn) [compound 64] | A (100) |  | A (100)
CSCCSCC(C)NC(=O)c1c(I)cccc1C(=O)Nc1ccc(OC(F)(F)F)cc1C (stereo not drawn) [compound 190] | A (100) |  | A (100)
CSCC(C)(C)NC(=O)c1c(C(=O)Nc2ccc(Cl)cc2Cl)cccc1[N+](=O)[O-] [compound 326] | A (100) |  | A (100)
CCS(=O)(=O)CCCCC(C)NC(=O)c1c(I)cccc1C(=O)Nc1ccc(C(F)(F)C(F)(F)F)cc1C (stereo not drawn) [compound 179] | A (100) |  | A (100)

SMILES | Test Example 1 insecticidal effect (mortality) [1] | Test Example 2 insecticidal effect (mortality) [2] | Test Example 3 insecticidal effect (mortality) [3]
CCCCSCC(C)NC(=O)c1c(I)cccc1C(=O)Nc1ccc(OC(F)(F)F)cc1C (stereo not drawn) [compound 63] | A (100) |  | A (100)
CCN(CCS(C)(=O)=O)C(=O)c1c(F)cccc1C(=O)Nc1ccc(C(F)(C(F)(F)F)C(F)(F)F)cc1C [2-12] | A (100) |  | A (100)
CSCC(C)(C)NC(=O)c1c(C(=O)Nc2ccc(OC(F)(F)F)cc2C)ccc2c1OCO2 [compound 252] | A (100) |  | A (100)
Cc1cc(OC(F)(F)F)ccc1NC(=O)c1cccc(I)c1C(=O)NC(C)CSC1CCCCC1 (stereo not drawn) [compound 82] | A (100) |  | A (100)
CSCCNC(=O)c1c(I)cccc1C(=O)Nc1ccc(C(F)(F)C(F)(F)F)cc1C [compound 53] | A (100) |  | A (100)
CSCC1(NC(=O)c2c(I)cccc2C(=O)Nc2ccc(C(F)(C(F)(F)F)C(F)(F)F)cc2C)CCCC1 [compound 445] | A (100) |  | A (100)
CSCC(C)NC(=O)c1c(C(=O)Nc2ccc(Oc3ncc(C(F)(F)F)cc3Cl)cc2C)cccc1[N+](=O)[O-] (stereo not drawn) [compound 224] | A (100) |  | A (100)
Cc1cc(C(F)(C(F)(F)F)C(F)(F)F)ccc1NC(=O)c1cccc(I)c1C(=O)NC(C)CSC(=S)N(C)C (stereo not drawn) [compound 302] | A (100) |  | A (100)
CSCCCC(C)NC(=O)c1cccc(Cl)c1C(=O)Nc1ccc(C(F)(C(F)(F)F)C(F)(F)F)cc1C (stereo not drawn) [compound 155] | A (100) |  | A (100)
CSCC(C)NC(=O)c1ccc(Cl)c(Cl)c1C(=O)Nc1ccc(OC(F)(F)F)cc1C (stereo not drawn) [compound 38] | A (100) |  | A (100)
CSCC(C)(C)NC(=O)c1c(I)cccc1C(=O)Nc1ccc(Oc2cccc(Cl)c2)cc1C [compound 474] | A (100) |  | D (79-50)
Cc1cc(C(F)(C(F)(F)F)C(F)(F)F)ccc1NC(=O)c1cccc(I)c1C(=O)NC(C)CSc1nc2ccccc2s1 (stereo not drawn) [compound 319] | A (100) |  | A (100)
CSCC(C)(C)NC(=O)c1c(I)cccc1C(=O)Nc1ccc(Cc2ccc(Cl)cc2)cc1C [compound 471] | A (100) |  | A (100)
Cc1cc(C(F)(C(F)(F)F)C(F)(F)F)ccc1NC(=O)c1cccc(Cl)c1C(=O)NC(C)(C)CS(C)(=O)=O [compound 171] | A (100) |  | A (100)
CSCC(C)NC(=O)c1ccc(I)cc1C(=O)Nc1ccc(C(F)(F)C(F)(F)F)cc1C (stereo not drawn) [compound 111] | A (100) |  | B (99-90)
CSCC(C)(C)NC(=O)c1c(I)cccc1C(=O)Nc1ccc(C(=O)N(C)c2ccc(Cl)cc2)cc1C [compound 480] | A (100) |  | A (100)
CSCC(C)NC(=O)c1c(I)cccc1C(=O)Nc1ccc(OC(F)(F)F)cc1 (stereo not drawn) [compound 8] | A (100) |  | C (89-80)
Cc1cc(OC(F)(F)F)ccc1NC(=O)c1ccc2c(c1C(=O)NC(C)(C)CS(C)(=O)=O)OC(F)(F)O2 [compound 293] | A (100) |  | A (100)
Cc1cc(C(F)(C(F)(F)F)C(F)(F)F)ccc1NC(=O)c1cccc(I)c1C(=O)NC(C)(C)CSCc1ccc(Cl)cc1 [compound 451] | A (100) |  | A (100)
